Assay results from a compilation of properties of binary mixtures (doi:10.1016/j.molliq.2018.08.031).

Experiment: xn = mol fraction of the nth substance listed
Conditions: 100 kPa

COCCOCCOC + CCCC[n+]1ccn(C)c1.F[P-](F)(F)(F)(F)F
Conditions | viscosity [mPa·s]
283.15 K, x2 = 0.0571 | 2.381
283.15 K, x2 = 0.1013 | 3.238
283.15 K, x2 = 0.2923 | 11.69
283.15 K, x2 = 0.39 | 19.81
283.15 K, x2 = 0.492 | 37.5
283.15 K, x2 = 0.6827 | 114.6
283.15 K, x2 = 0.9711 | 618
293.15 K, x2 = 0.057 | 1.99
293.15 K, x2 = 0.1982 | 4.59
293.15 K, x2 = 0.2963 | 7.91
293.15 K, x2 = 0.3913 | 14.79
293.15 K, x2 = 0.5865 | 39.52
293.15 K, x2 = 0.6814 | 66.5
293.15 K, x2 = 0.7968 | 124.3
293.15 K, x2 = 0.892 | 209.7
303.15 K, x2 = 0.0995 | 1.623
303.15 K, x2 = 0.1973 | 2.826
303.15 K, x2 = 0.2994 | 5.146
303.15 K, x2 = 0.4896 | 14.66
303.15 K, x2 = 0.5893 | 24.8
303.15 K, x2 = 0.6884 | 40.83
303.15 K, x2 = 0.8923 | 113.3
303.15 K, x2 = 0.9596 | 158.7
313.15 K, x2 = 0.057 | 0.953
313.15 K, x2 = 0.0943 | 0.744
313.15 K, x2 = 0.1995 | 0.789
313.15 K, x2 = 0.2856 | 1.631
313.15 K, x2 = 0.4877 | 7.46
313.15 K, x2 = 0.6781 | 21.08
313.15 K, x2 = 0.7994 | 38.25
313.15 K, x2 = 0.8941 | 61
313.15 K, x2 = 0.9553 | 83.2
